Key:
[1] = tested on: rabbit serum obtained by immunizing a rabbit with the SARS-CoV strain Frankfurt 1; assay type: binding; parameters: Binding of a rabbit serum to linear peptides / Binding of a rabbit serum to looped peptides / Rabbit serum linear peptides / Rabbit serum looped peptides / Binding of a rabbit serum to linear peptides of protein N of SARS-CoV Urbani (Rabbit serum linear peptides) / Binding of a rabbit serum to looped/cyclic peptides of protein N of SARS-CoV Urbani (Rabbit serum looped peptides): unit not given here
[2] = tested on: control sera (pooled serum of ten healthy LUMC hospital workers; commercial negative donor pooled serum from the Dutch bloodbank); assay type: binding, human; parameters: Binding of Control serum LUMC to linear peptides / Binding of Control serum Blood-bank to linear peptides / Binding of Control serum LUMC to looped peptides / Binding of Control Serum Blood-Bank to Looped peptides / Binding of Control serum LUMC to linear peptides of the protein M of SARS-CoV Urbani / Binding of Control serum Blood-bank to linear peptides of the protein M of SARS-CoV Urbani / Binding of Control serum LUMC to looped peptides of the protein M of SARS-CoV Urbani / Binding of Control Serum Blood-Bank to Looped peptides of the protein M of SARS-CoV Urbani: unit not given here
[3] = tested on: antibodies in sera from SARS patients (sera 1a, 1b, 2, 6, 37, 62, London, SARS-yellow, SARS-green); assay type: binding, human; parameters: Binding of serum 6 to linear peptides of protein X1 of SARS-CoV Urbani / Binding of serum 37 to linear peptides of protein X1 of SARS-CoV Urbani / Binding of serum 6 to looped/cyclic peptide (PEPSCAN-ELISA) / Binding of serum 37 to looped/cyclic peptide (PEPSCAN-ELISA) / Binding of serum 37 to looped/cyclic peptides of protein X1 of SARS-CoV Urbani / Binding of serum 6 to linear peptides of protein X2 / Binding of serum 37 to linear peptides of protein X2 / Binding of serum 37 to looped/cyclic peptides of protein X2 of SARS-CoV Urbani / Binding of serum 6 to linear peptides of protein M of SARS-CoV Urbani / Binding of serum 37 to linear peptides of protein M of SARS-CoV Urbani / Binding of serum 6 to looped/cyclic peptides of protein M of SARS-CoV Urbani / Binding of serum 37 to looped/cyclic peptides of protein M of SARS-CoV Urbani / Binding of serum 6 to linear peptides of protein X3 of SARS-CoV Urbani / Binding of serum 37 to linear peptides of protein X3 of SARS-CoV Urbani / Binding of serum 37 to looped/cyclic peptides of protein X3 of SARS-CoV Urbani / Binding of serum 6 to linear peptides of protein X4 of SARS-CoV Urbani / Binding of serum 37 to linear peptides of protein X4 of SARS-CoV Urbani / Binding of serum 37 to looped/cyclic peptides of protein X4 of SARS-CoV Urbani / Binding of serum 6 to linear peptides of protein X5 of SARS-CoV Urbani / Binding of serum 37 to linear peptides of protein X5 of SARS-CoV Urbani / Binding of serum 37 to looped/cyclic peptides of protein X5 of SARS-CoV Urbani / Binding of serum 6 to linear peptides of protein N of SARS-CoV Urbani / Binding of serum 37 to linear peptides of protein N of SARS-CoV Urbani / Binding of serum 6 to linear peptide (PEPSCAN-ELISA) / Binding of serum 1a to looped/cyclic peptides of protein N of SARS-CoV Urbani / Binding of serum 1b to looped/cyclic peptides of protein N of SARS-CoV Urbani / Binding of serum 2 to looped/cyclic peptides of protein N of SARS-CoV Urbani / Binding of serum 6 to looped/cyclic peptides of protein N of SARS-CoV Urbani / Binding of serum 37 to looped/cyclic peptides of protein N of SARS-CoV Urbani / Binding of serum 62 to looped/cyclic peptides of protein N of SARS-CoV Urbani / Binding of serum London to looped/cyclic peptides of protein N of SARS-CoV Urbani / Binding of serum SARS-green to looped/cyclic peptides of protein N of SARS-CoV Urbani: unit not given here

In the case of SPASTVHATATIPLQ, the “Binding of a rabbit serum to linear peptides” value [1] is reported as 1.0 and the “Binding of a rabbit serum to looped peptides” value [1] is reported as 0.4.

GTHITMTTVYHITVS was tested, and the “Binding of a rabbit serum to linear peptides” value [1] was 2.1 and the “Binding of a rabbit serum to looped peptides” value [1] was 0.4.

For GNSPFHPLADNKFAL, the “Rabbit serum linear peptides” value [1] was 0.5 and the “Rabbit serum looped peptides” value [1] was 1.0.

In the case of AGTHITMTTVYHITV, the “Binding of a rabbit serum to linear peptides” value [1] is reported as 0.7 and the “Binding of a rabbit serum to looped peptides” value [1] is reported as 0.5.

HEGHQTAAFRDVLVV was tested, and the “Rabbit serum linear peptides” value [1] was 0.2 and the “Rabbit serum looped peptides” value [1] was 0.8.

In the case of YLHEGHQTAAFRDVL, the “Rabbit serum linear peptides” value [1] is reported as 0.2 and the “Rabbit serum looped peptides” value [1] is reported as 0.6.

IIRGHLRMAGHPLGR was tested, and the “Rabbit serum linear peptides” value [1] was 0.6 and the “Rabbit serum looped peptides” value [1] was 2.0.

With VEELKQLLEQWNLVI the “Recognition of the peptide by the rabbit serum” value [1] was “recognized”.

With LLIQQWTQFMMSRRR the “Binding of Control Serum Blood-Bank to Looped peptides” value [2] was 0.6, the “Binding of Control serum Blood-bank to linear peptides” value [2] was 0.5 and the “Binding of Control serum LUMC to linear peptides” value [2] was 0.4. For the same sequence, the “Binding of Control serum LUMC to looped peptides” value [2] was 0.5.

LFAGTHITMTTVYHI was tested, and the “Binding of a rabbit serum to linear peptides” value [1] was 0.6 and the “Binding of a rabbit serum to looped peptides” value [1] was 0.5.

STVHATATIPLQASL was tested, and the “Binding of a rabbit serum to linear peptides” value [1] was 0.6 and the “Binding of a rabbit serum to looped peptides” value [1] was 0.5.

For GFQFICNLLLLFVTI, the “Binding of serum 1a to linear peptides of protein X1 of SARS-CoV Urbani” value [3] was 0.6, the “Binding of serum 1a to looped/cyclic peptide (PEPSCAN-ELISA)” value [3] was 0.5 and the “Binding of serum 1b to linear peptides of protein X1 of SARS-CoV Urbani” value [3] was 0.5. The “Binding of serum 1b to looped/cyclic peptide (PEPSCAN-ELISA)” value [3] was 0.3, the “Binding of serum 2 to linear peptides of protein X1 of SARS-CoV Urbani” value [3] was 0.5 and the “Binding of serum 2 to looped/cyclic peptide (PEPSCAN-ELISA)” value [3] was 0.3. For the same sequence, the “Binding of serum 6 to linear peptides of protein X1 of SARS-CoV Urbani” value [3] was 0.4, the “Binding of serum 6 to looped/cyclic peptide (PEPSCAN-ELISA)” value [3] was 0.3 and the “Binding of serum 37 to linear peptides of protein X1 of SARS-CoV Urbani” value [3] was 0.5. The “Binding of serum 37 to looped/cyclic peptide (PEPSCAN-ELISA)” value [3] was 0.5, the “Binding of serum 62 to linear peptides of protein X1 of SARS-CoV Urbani” value [3] was 0.6 and the “Binding of serum 62 to looped/cyclic peptide (PEPSCAN-ELISA)” value [3] was 0.5. For the same sequence, the “Binding of serum London to linear peptides of protein X1 of SARS-CoV Urbani” value [3] was 0.3, the “Binding of serum London to looped/cyclic peptide (PEPSCAN-ELISA)” value [3] was 0.2 and the “Binding of serum SARS-green to linear peptides of protein X1 of SARS-CoV Urbani” value [3] was 0.2. The “Binding of serum SARS-green to looped/cyclic peptide (PEPSCAN-ELISA)” value [3] was 0.2, the “Binding of serum SARS-yellow to linear peptides of protein X1 of SARS-CoV Urbani” value [3] was 0.5 and the “Binding of serum SARS-yellow to looped/cyclic peptide (PEPSCAN-ELISA)” value [3] was 0.4. The “Binding of Control Serum Blood-Bank to Looped peptides” value [2] was 0.4, the “Binding of Control serum Blood-bank to linear peptides” value [2] was 0.4 and the “Binding of Control serum LUMC to linear peptides” value [2] was 0.5. The “Binding of Control serum LUMC to looped peptides” value [2] was 0.5.

LCKHKKVSTNLGTHS was tested, and the “Binding of serum 1a to looped/cyclic peptides of protein X2 of SARS-CoV Urbani” value [3] was 0.3, the “Binding of serum 1b to looped/cyclic peptides of protein X2 of SARS-CoV Urbani” value [3] was 0.4 and the “Binding of serum 2 to looped/cyclic peptides of protein X2 of SARS-CoV Urbani” value [3] was 0.3. The “Binding of serum 6 to looped/cyclic peptides of protein X2 of SARS-CoV Urbani” value [3] was 0.3, the “Binding of serum 37 to looped/cyclic peptides of protein X2 of SARS-CoV Urbani” value [3] was 0.3 and the “Binding of serum 62 to looped/cyclic peptides of protein X2 of SARS-CoV Urbani” value [3] was 0.4. For the same sequence, the “Binding of serum London to looped/cyclic peptides of protein X2 of SARS-CoV Urbani” value [3] was 0.3, the “Binding of serum SARS-green to looped/cyclic peptides of protein X2 of SARS-CoV Urbani” value [3] was 0.3 and the “Binding of serum SARS-yellow to looped/cyclic peptides of protein X2 of SARS-CoV Urbani” value [3] was 0.5.

With LACPVLAAVYRINWV the “Binding of Control Serum Blood-Bank to Looped peptides of the protein M of SARS-CoV Urbani” value [2] was 0.7, the “Binding of Control serum Blood-bank to linear peptides of the protein M of SARS-CoV Urbani” value [2] was 0.7 and the “Binding of Control serum LUMC to linear peptides of the protein M of SARS-CoV Urbani” value [2] was 0.6. The “Binding of Control serum LUMC to looped peptides of the protein M of SARS-CoV Urbani” value [2] was 0.7.

In the case of RTLSYYKLGASQPVG, the “Binding of Control Serum Blood-Bank to Looped peptides of the protein M of SARS-CoV Urbani” value [2] is reported as 0.6, the “Binding of Control serum Blood-bank to linear peptides of the protein M of SARS-CoV Urbani” value [2] is reported as 0.9 and the “Binding of Control serum LUMC to linear peptides of the protein M of SARS-CoV Urbani” value [2] is reported as 0.8. For the same sequence, the “Binding of Control serum LUMC to looped peptides of the protein M of SARS-CoV Urbani” value [2] was 0.8.
